Reference: patent US7297704B2, “Cycloalkyfused indole, benzothiophene, benzofuran and idene derivatives” (Wyeth, priority 2005, dated 2007)
Counter-ions that a name gives are not always drawn.

Assays:
serotonin transporter = target: T1, serotonin transporter (Rattus norvegicus, UniProt P31652); experiment: 3H-paroxetine binding to the serotonin transporter, rat frontal cortical membranes; conditions: values printed in parentheses, 3H-paroxetine 0.1 nM, read-out: rb-5-HH-T, (IC50)
T1 construct: frontal cortical membranes prepared from male S.D. rats; from tissue; host or cells: rat frontal cortex membranes (male Sprague-Dawley)
Protocol: A protocol similar to that used by Cheetham et al. (Neuropharmacol. 32:737, 1993) was used to determine the affinity of compounds for the serotonin transporter. Briefly, frontal cortical membranes prepared from male S.D. rats were incubated with ^3H-paroxetine (0.1 nM) for 60 min at 25° C. All tubes also contained either vehicle, test compound (one to eight concentrations), or a saturating concentration of fluoxetine (10 μM) to define […]. All reactions are terminated by the addition of ice cold Tris buffer followed by rapid filtration using a Tom Tech filtration device to separate bound from free ^3H-paroxetine. Bound radioactivity was quantitated using a Wallac 1205 Beta Plate® counter. Nonlinear regression analysis was used to determine IC50 values which were converted to Ki values using the method of Cheng and Prusoff (Biochem. Pharmacol. 22: 3099, 1973); […].

Human 5-HT1A Receptor [1] = target: T2, Human 5-HT1A Receptor (Homo sapiens, UniProt P08908); experiment: cAMP RIA in human 5-HT1A receptor cell line; type: cell-based; conditions: CHO cells; for IC50: superscript b, reversal of agonist activity, read-out: c-AMP, (IC50)^b
T2 construct: expressed in transfected cells; host or cells: CHO cells
T2 sequence (P08908 1-422): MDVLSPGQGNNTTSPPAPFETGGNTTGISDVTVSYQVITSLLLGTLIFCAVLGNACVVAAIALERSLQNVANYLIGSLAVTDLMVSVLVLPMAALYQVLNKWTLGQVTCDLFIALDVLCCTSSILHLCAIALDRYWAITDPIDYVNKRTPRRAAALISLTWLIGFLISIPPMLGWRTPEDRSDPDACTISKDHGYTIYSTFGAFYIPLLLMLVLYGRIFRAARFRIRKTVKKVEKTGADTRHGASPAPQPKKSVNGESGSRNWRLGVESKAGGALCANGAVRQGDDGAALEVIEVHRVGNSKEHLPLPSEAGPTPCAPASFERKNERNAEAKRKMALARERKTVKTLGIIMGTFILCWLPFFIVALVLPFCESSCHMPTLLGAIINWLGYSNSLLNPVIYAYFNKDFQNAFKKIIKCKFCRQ
Protocol: Stably transfected CHO cells were grown in DMEM containing 10% heat inactivated FBS and non-essential amino acids. The cells were plated at a density of 10^6 cells per well in a 96 well plate and incubated for 2 days in a CO2 incubator. On the second day, the media was replaced with 0.1 ml Krebs and incubated 15 minutes at 37° C. The media was then replaced with Krebs buffer containing 500 uM IBMX and incubated 5 minutes at 37° C. Wells were treated with forskolin (1 uM final conc) followed immediately by test compound (0.1 and 1 uM for initial screen) and incubated for an additional 10 min at 37° C. Reaction was terminated by removal of the media and addition of 0.5 ml ice cold assay buffer (supplied in RIA kit). Plates are stored at −20° C. prior to assessment of cAMP formation by RIA. Compounds shown to have no agonist activities were further analyzed for ability to reverse agonist activity. In separate experiments, 6 concentrations of antagonist were preincubated for 20 min prior to the addition of agonist and forskolin. Cells were harvested as described. The cAMP kit is supplied by Amersham and the RIA is performed as per kit instructions. In the initial screen, percent inhibition of forskolin stimulated cAMP was measured. In the secondary screen, IC50 of reversal of agonist activity was measured. Calculations of IC50 were performed by GraphPad Prism. Serotonin, BMY 7378, Buspirone, and 8-OH-DPAT were used as reference compounds.

Human 5-HT1A Receptor [2] = target: T2, Human 5-HT1A Receptor; experiment: 8-OH-DPAT binding, human 5-HT1A receptor cell line; conditions: stably transfected CHO cells, 8-OH-DPAT ligand 1.5 nM; read-out: h5-HT1A Affinity, Ki
Protocol: Stably transfected CHO cells were grown in DMEM containing 10% heat inactivated FBS and non-essential amino acids. Cells were scraped off the plate, transferred to centrifuge tubes, and washed twice by centrifugation (2000 rpm for 10 min., 4° C.) in buffer (50 mM Tris, pH 7.5). The resulting pellets were aliquoted and placed at −80° C. On day of assay, the cells were thawed on ice, and resuspended in buffer. The binding assay was performed in a 96 well microtiter plate in a total volume of […]. Non-specific binding was determined in the presence of […] 5HT; final ligand concentration was 1.5 nM. Following a 30 min. incubation at room temperature, the reaction was terminated by the addition of ice cold buffer and rapid filtration through a GF/B filter presoaked for 30 min. in 0.5% PEI. Compounds were initially tested in a single point assay to determine percent inhibition at […]. Subsequently, Ki values were determined for compounds defined to be active. Percent inhibition Ki was determined by RFComp (Lundon Software), with Serotonin 8-OH-DPAT as the reference compounds.

h-5-HT-T = h-5-HT-T (Homo sapiens, UniProt P31645); experiment: h-5-HT-T IC50 (Table 1, no method described)
Sequence of h-5-HT-T (P31645 whole entry): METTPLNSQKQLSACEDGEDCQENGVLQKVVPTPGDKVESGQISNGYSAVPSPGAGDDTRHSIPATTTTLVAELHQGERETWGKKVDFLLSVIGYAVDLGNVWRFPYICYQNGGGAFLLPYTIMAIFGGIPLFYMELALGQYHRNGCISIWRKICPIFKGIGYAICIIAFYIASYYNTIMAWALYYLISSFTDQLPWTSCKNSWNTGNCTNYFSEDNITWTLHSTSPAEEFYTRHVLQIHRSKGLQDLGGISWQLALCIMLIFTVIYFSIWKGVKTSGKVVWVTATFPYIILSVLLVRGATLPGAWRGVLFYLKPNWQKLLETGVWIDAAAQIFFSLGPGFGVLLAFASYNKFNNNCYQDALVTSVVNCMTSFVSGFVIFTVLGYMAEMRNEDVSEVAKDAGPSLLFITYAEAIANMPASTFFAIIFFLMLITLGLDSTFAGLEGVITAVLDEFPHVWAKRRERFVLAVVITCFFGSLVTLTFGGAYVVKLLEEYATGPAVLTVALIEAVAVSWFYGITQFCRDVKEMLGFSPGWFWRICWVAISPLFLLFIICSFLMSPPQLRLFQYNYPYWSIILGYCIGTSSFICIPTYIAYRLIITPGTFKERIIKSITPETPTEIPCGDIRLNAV

T1 sequence (P31652 whole entry): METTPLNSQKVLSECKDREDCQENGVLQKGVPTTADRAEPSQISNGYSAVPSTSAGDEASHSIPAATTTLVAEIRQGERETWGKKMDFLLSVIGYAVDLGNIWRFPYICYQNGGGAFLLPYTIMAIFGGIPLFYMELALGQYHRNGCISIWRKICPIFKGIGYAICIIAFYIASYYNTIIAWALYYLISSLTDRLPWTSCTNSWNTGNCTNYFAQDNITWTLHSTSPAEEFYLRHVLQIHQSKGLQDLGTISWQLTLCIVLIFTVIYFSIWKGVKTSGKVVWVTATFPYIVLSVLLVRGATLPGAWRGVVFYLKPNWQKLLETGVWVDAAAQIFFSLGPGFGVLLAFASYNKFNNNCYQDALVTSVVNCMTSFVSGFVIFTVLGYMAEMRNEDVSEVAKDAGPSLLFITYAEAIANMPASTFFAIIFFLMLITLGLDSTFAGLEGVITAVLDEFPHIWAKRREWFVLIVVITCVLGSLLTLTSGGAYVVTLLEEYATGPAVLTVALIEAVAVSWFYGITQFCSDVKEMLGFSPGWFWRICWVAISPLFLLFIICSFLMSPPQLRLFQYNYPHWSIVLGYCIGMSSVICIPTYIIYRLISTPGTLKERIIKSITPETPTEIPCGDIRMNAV

Row | Structure (SMILES) | melting point [°C] | IC50 (serotonin transporter) [nM] | IC50 (Human 5-HT1A Receptor [1]) [nM] | Ki (Human 5-HT1A Receptor [2]) [nM] | IC50 (h-5-HT-T) [nM] | EC50 (Human 5-HT1A Receptor [1]; superscript a, forskolin stimulated cAMP, read-out: c-AMP, (EC50)^a) [nM] | Emax (Human 5-HT1A Receptor [1]; superscript c, forskolin stimulated cAMP, read-out: c-AMP, (Emax)^c) [%]
1 | Cc1ccc2c3c(ccc2n1)OC[C@H](CNCC1CCc2[nH]c4ccc(F)cc4c2C1)O3 (mixture of isomers) [Example 2, N-[(6-fluoro-2,3,4,9-tetrahydro-1H-carbazol-3-yl)methyl]-N-{[(2S)-8-methyl-2,3-dihydro[1,4]dioxino[2,3-f]quinolin-2-yl]methyl}amine] | 89 to 97 | 5.26 | 7.2 | 1.36 |  |  | 
2 | Cc1ccc2c3c(ccc2n1)OC[C@H](CNCC1CCc2c(c4cc(F)ccc4n2C)C1)O3 (mixture of isomers) [Example 6, N-[(6-fluoro-9-methyl-2,3,4,9-tetrahydro-1H-carbazol-3-yl)methyl]-N-{[(2S)-8-methyl-2,3-dihydro[1,4]dioxino[2,3-f]quinolin-2-yl]methyl}amine] | 57 to 62 | 9.01 | 532 | 3.65 |  |  | 
3 | Cc1ccc2c3c(ccc2n1)OC[C@H](CNCC1CCc2c([nH]c4ccc(F)cc24)C1)O3 (stereo partly drawn) [Example 1, N-[(6-fluoro-2,3,4,9-tetrahydro-1H-carbazol-2-yl)methyl]-N-{[(2S)-8-methyl-2,3-dihydro[1,4]dioxino[2,3-f]quinolin-2-yl]methyl}amine] | 92 to 96 | 49.4 | 15.2 | 2.23 |  |  | 
4 | Cc1ccc2c3c(ccc2n1)OC[C@H](CNC[C@@H]1CCc2[nH]c4c(F)cc(F)cc4c2C1)O3.Cl.Cl [Example 9, N-{[(3R)-6,8-difluoro-2,3,4,9-tetrahydro-1H-carbazol-3-yl]methyl}-N-{[(2S)-8-methyl-2,3-dihydro[1,4]dioxino[2,3-f]quinolin-2-yl]methyl}amine dihydrochloride] | 260 to 272 | 57.6 | 105 | 3.7 |  |  | 
5 | Cc1ccc2c3c(ccc2n1)OC[C@H](CNC[C@H]1CCc2[nH]c4c(F)cc(F)cc4c2C1)O3.Cl.Cl [Example 10, N-{[(3S)-6,8-difluoro-2,3,4,9-tetrahydro-1H-carbazol-3-yl]methyl}-N-{[(2S)-8-methyl-2,3-dihydro[1,4]dioxino[2,3-f]quinolin-2-yl]methyl}amine dihydrochloride] | 267 to 275 | 11.3 | 249 | 4.95 |  |  | 
6 | Cc1ccc2c3c(ccc2n1)OC[C@H](CNCC1CCc2[nH]c4cccc(F)c4c2C1)O3.Cl.Cl (stereo partly drawn) [Example 11, [(5-fluoro-2,3,4,9-tetrahydro-1H-carbazol-3-yl)methyl]{[(2S)-8-methyl-2,3-dihydro[1,4]dioxino[2,3-f]quinolin-2-yl]methyl}amine dihydrochloride] | 220 to 230 | 124 | 49.2 | 16.7 |  |  | 
7 | Cc1ccc2c3c(ccc2n1)OC[C@H](CNCC1CCc2c(c4c(F)cccc4n2C)C1)O3 (stereo partly drawn) [Example 12, N-[(5-fluoro-9-methyl-2,3,4,9-tetrahydro-1H-carbazol-3-yl)methyl]-N-{[(2S)-8-methyl-2,3-dihydro[1,4]dioxino[2,3-f]quinolin-2-yl]methyl}amine] | 84 to 90 | 180 | 26.7 | 0.54 |  |  | 
8 | Cc1ccc2c3c(ccc2n1)OC[C@H](CNCC1CCc2[nH]c4cc(F)ccc4c2C1)O3 (stereo partly drawn) [Example 13, N-[(7-fluoro-2,3,4,9-tetrahydro-1H-carbazol-3-yl)methyl]-N-{[(2S)-8-methyl-2,3-dihydro[1,4]dioxino[2,3-f]quinolin-2-yl]methyl}amine] | 89 to 97 | 120 | 22.1 | 1.8 |  |  | 
9 | Cc1ccc2c3c(ccc2n1)OC[C@H](CNC[C@H]1CCc2[nH]c4ccc(C#N)cc4c2C1)O3.Cl.Cl [Example 14, (3S)-3-[({[(2S)-8-methyl-2,3-dihydro[1,4]dioxino[2,3-f]quinolin-2-yl]methyl}amino)methyl]-2,3,4,9-tetrahydro-1H-carbazole-6-carbonitrile dihydrochloride] | 236 to 241 | 3.61 | 79.5 | 13.6 |  |  | 
10 | Cc1ccc2c3c(ccc2n1)OC[C@H](CNC[C@@H]1CCc2[nH]c4ccc(C#N)cc4c2C1)O3.Cl.Cl [Example 15, (3R)-3-[({[(2S)-8-methyl-2,3-dihydro[1,4]dioxino[2,3-f]quinolin-2-yl]methyl}amino)methyl]-2,3,4,9-tetrahydro-1H-carbazole-6-carbonitrile dihydrochloride] | 254 to 258 | 2.25 | 888 | 15 |  |  | 
11 | Cc1ccc2c3c(ccc2n1)OC[C@H](CN(C[C@H]1CCc2[nH]c4ccc(F)cc4c2C1)C(C)C)O3 [Example 61, N-{[(3S)-6-Fluoro-2,3,4,9-tetrahydro-1H-carbazol-3-yl]methyl}-N-{[(2S)-8-methyl-2,3-dihydro[1,4]dioxino[2,3-f]quinolin-2-yl]methyl}propan-2-amine monohydrochloride monohydrate] |  |  |  |  | 1700 ± 46 |  | 
12 | Cc1ccc2c3c(ccc2n1)OCC(CN(CC1CCc2c(c4cc(F)ccc4n2C)C1)C(C)C)O3 [Example 65, N-[(6-Fluoro-9-methyl-2,3,4,9-tetrahydro-1H-carbazol-3-yl)methyl]-N-([(2S)-8-methyl-2,3-dihydro[1,4]dioxino[2,3-f]quinolin-2-yl]methylpropan-2-aminemonohydrochloride monohydrate] |  |  |  |  | 403 ± 29 |  | 
13 | Cc1ccc2c3c(ccc2n1)OC[C@H](CN(CC1CCc2c(c4cc(F)ccc4n2C)C1)C1CCCC1)O3 (stereo partly drawn) [Example 66, N-[(6-Fluoro-9-methyl-2,3,4,9-tetrahydro-1H-carbazol-3-yl)methyl]-N-{[(2S)-8-methyl-2,3-dihydro[1,4]dioxino[2,3-f]quinolin-2-yl]methyl}cyclopentanamine monohydrochloride monohydrate] |  |  |  |  | 62.3 ± 9.19 | 163 | 67.5
14 | Cc1ccc2c3c(ccc2n1)OC[C@H](CN(CC1CCc2c(c4cc(F)ccc4n2C)C1)C1CCCCC1)O3 (stereo partly drawn) [Example 67, N-[(6-Fluoro-9-methyl-2,3,4,9-tetrahydro-1H-carbazol-3-yl)methyl]-N-{[(2S)-8-methyl-2,3-dihydro[1,4]dioxino[2,3-f]quinolin-2-yl]methyl}cyclohexanamine monohydrochloride monohydrate] |  |  |  |  | 505 ± 9.55 |  | 
